CN(C/C=C/C#CC(C)(C)C)Cc1cccc2ccccc12.Cl
solubility (mole fraction)
Details	in ethanol	in ethyl acetate	in methanol	in n-propanol
278.15 K	0.0187	0.0022	0.0398	0.0187
280.65 K	0.0197	0.00255	0.0411	0.0193
283.15 K	0.0207	0.00304	0.0424	0.02
285.65 K	0.0217	0.0036	0.0439	0.0206
288.15 K	0.0229	0.00417	0.0453	0.0214
290.65 K	0.0241	0.00482	0.047	0.0221
293.15 K	0.0254	0.00557	0.0486	0.0228
295.65 K	0.0266	0.00626	0.0502	0.0237
298.15 K	0.0279	0.00715	0.0518	0.0245
300.65 K	0.0293	0.00821	0.0536	0.0254
303.15 K	0.0309	0.00919	0.0554	0.0262
305.65 K	0.0326	0.0105	0.0572	0.0271
308.15 K	0.0342	0.0119	0.059	0.028
310.65 K	0.036	0.0133	0.061	0.0291
313.15 K	0.0379	0.015	0.063	0.0301

Source: BigSolDB 2.1
